Assays:
[1] = tested on: Listeria monocytogenes ATCC 7644; assay: Broth microdilution MIC; type: cell-based; details: Listeria monocytogenes, ATCC7644, read-out: Minimum Inhibitory Concentrations (MIC), Listeria monocytogenes ATCC 7644
[2] = tested on: Pseudomonas aeruginosa ATCC 27853; assay: Broth microdilution MIC; type: cell-based; details: Pseudomonas aeruginosa, ATCC27853, read-out: Minimum Inhibitory Concentrations (MIC)
[3] = tested on: Listeria monocytogenes ATCC 7644; assay: Time-resolved growth kinetics; type: cell-based; details: MIC and ½ MIC
Experimental: (§1) The antimicrobial activity of the candidate compounds against Staphylococcus aureus ATCC 25923 and Listeria monocytogenes ATCC 7644 was further evaluated using a time-resolved growth kinetics assay in 96-well microtiter plates. Overnight bacterial cultures were diluted in fresh, pre-warmed Mueller–Hinton broth (MHB) and incubated at 37 °C with orbital shaking at 220 rpm. Upon reaching the exponential growth phase (OD600 = 0.3–0.5), cultures were standardized to a final concentration of 5 × 10^4 CFU/mL. Aliquots (50 µL) of the standardized inoculum were dispensed into wells containing either no antimicrobial agent (negative control) or the test compounds at concentrations corresponding to ½ MIC and MIC. Bacterial growth was continuously monitored over a 24 h period by measuring absorbance at 595 nm every 10 min using a Bio-Tek EL808 microplate reader (Winooski, VT, USA). Growth kinetics were assessed by comparing the optical density profiles of treated samples against the untreated control. Each experiment was performed independently twice, with all conditions tested in triplicate. Data are presented as the mean values of these replicates.

[4] = tested on: Escherichia coli ATCC 25922; assay: Broth microdilution MIC; type: cell-based; details: Escherichia coli, ATCC25922, read-out: Minimum Inhibitory Concentrations (MIC)
[5] = tested on: Listeria monocytogenes ATCC 7644; assay: Biofilm inhibition assay (crystal violet); type: cell-based; details: Listeria monocytogenes, ATCC7644, read-out: biofilm inhibition
Experimental: (§2) The ability of the candidate compounds to inhibit biofilm formation was evaluated by determining the minimum biofilm inhibitory concentration (MBIC) against the biofilm-forming strains Staphylococcus aureus ATCC 25923 and Listeria monocytogenes ATCC 7644. Overnight bacterial cultures were diluted in fresh, pre-warmed Mueller–Hinton broth (MHB) and incubated at 37 °C with constant shaking at 220 rpm. Once the cultures reached the exponential growth phase (OD600 = 0.3–0.5), they were standardized to a final concentration of 4 × 10^6 CFU/mL.
(§3) Aliquots (50 µL) of the standardized bacterial suspension were inoculated into 96-well microtiter plates containing the test compounds at final concentrations of 100, 50, 25, and 12.5 µg/mL. Plates were incubated at 37 °C for 24 to 48 h, depending on the bacterial strain. After incubation, the planktonic cells were carefully aspirated to preserve the integrity of the biofilm layer. Wells were gently rinsed with sterile ultrapure Milli-Q water and air-dried at 60 °C for 1 h to fix the biofilms. Biofilm formation was quantified using a crystal violet (CV) staining method. Wells were stained with 100 µL of 0.1% CV solution and incubated at room temperature for 1 h. Excess dye was removed by rinsing with sterile ultrapure Milli-Q water, followed by air-drying. Bound CV was solubilized with 100 µL of 70% ethanol and incubated for 30 min. The solubilized dye was transferred to a fresh plate, and absorbance was measured at 595 nm using a microplate reader (Bio-Tek EL808, Winooski, VT, USA). Absorbance values were directly proportional to biofilm biomass. Untreated bacterial cultures served as positive controls for biofilm formation, while sterile MHB served as the negative control.

[6] = tested on: Staphylococcus aureus ATCC 33591 (methicillin-resistant); assay: Broth microdilution MIC; type: cell-based; details: Staphylococcus aureus, ATCC33591, read-out: Minimum Inhibitory Concentrations (MIC)
[7] = tested on: Staphylococcus aureus ATCC 25923; assay: Broth microdilution MIC; type: cell-based; details: Staphylococcus aureus, ATCC25923, read-out: Minimum Inhibitory Concentrations (MIC)
[8] = tested on: HEK293 cells; assay: Cytotoxicity MTS assay; type: cell-based, human; details: Homo sapiens, HEK293, 48 h, read-out: IC50 HEK293
Experimental: (§4) The cytotoxic potential of the selected drug candidates was evaluated using the CellTiter 96® AQueous One Solution Cell Proliferation Assay (Promega, Madison, WI, USA), following the manufacturer’s protocol. Human cell lines RPE1 and HEK293 were cultured at 37 °C in a humidified incubator with 5% CO2. Test compounds were dissolved in the appropriate growth medium and serially diluted across a range of concentrations in 96-well microtiter plates. Each well was seeded with 5000 cells and incubated for 48 h under standard culture conditions. Following this incubation period, 20 µL of MTS reagent was added to each well, and the plates were further incubated for 3 h to allow for color development. Absorbance was measured at 490 nm using a microplate reader to determine cell viability. Cytotoxicity was quantified as the half-maximal inhibitory concentration (IC50), defined as the concentration of compound that reduced cell viability by 50%. […] IC50 values were calculated using GraFit 6.0 software by plotting compound concentration against absorbance and fitting the data to a sigmoidal dose–response curve.

[9] = tested on: RPE1 cells; assay: Cytotoxicity MTS assay; type: cell-based, human; details: Homo sapiens, RPE-1, 48 h, read-out: IC50 RPE1
Experimental: as §4

[10] = tested on: Salmonella enterica (food isolate); assay: Broth microdilution MIC; type: cell-based; details: read-out: Minimum Inhibitory Concentrations (MIC)
[11] = tested on: Bacillus cereus ATCC 14579; assay: Broth microdilution MIC; type: cell-based; details: ATCC14579, read-out: Minimum Inhibitory Concentrations (MIC), Bacillus cereus ATCC 14579
[12] = tested on: Staphylococcus aureus Clinical/MRSA; assay: Broth microdilution MIC; type: cell-based; details: Staphylococcus aureus, MRSA, read-out: Minimum Inhibitory Concentrations (MIC)
[13] = tested on: Enterococcus faecalis ATCC 29212; assay: Broth microdilution MIC; type: cell-based; details: Enterococcus faecalis, ATCC29212, read-out: Minimum Inhibitory Concentrations (MIC), Enterococcus faecalis ATCC 29212
[14] = tested on: Staphylococcus aureus ATCC 25923; assay: Time-kill kinetics assay; type: cell-based
Experimental: To assess the temporal dynamics of bacterial viability upon exposure to the test compounds, a time-kill kinetics assay was performed using the Gram-positive reference strain Staphylococcus aureus ATCC 25923. An overnight culture of the strain was subcultured into fresh, pre-warmed Mueller–Hinton broth (MHB) and incubated under aerobic conditions at 37 °C with agitation (220 rpm) until reaching the early exponential growth phase. The bacterial suspension was then standardized to an initial concentration of approximately 5 × 10^5 CFU/mL. […] Wells containing untreated bacterial cultures served as growth controls. Immediately after mixing, a 10 µL sample from each well was withdrawn, diluted in 990 µL of MHB, and serially diluted tenfold up to 10^−6. From each dilution, 20 µL was plated on MHB agar using a sterile loop to determine the initial bacterial count (time zero). The treated plates were incubated at 37 °C, and additional samples were collected at predetermined time points (2, 4, 6, 8, 12, and 24 h) following the same dilution and plating protocol. After 24 h of incubation at 37 °C, colonies were counted, and viable bacterial counts were expressed as log10 CFU/mL for each time point. Bactericidal activity was evaluated by plotting the log10 CFU/mL over time, providing a dynamic profile of the compound’s killing kinetics.

[15] = tested on: Staphylococcus aureus ATCC 25923; assay: Time-resolved growth kinetics; type: cell-based; details: subinhibitory concentrations, relative to 2(QC16)3 and 2(QC16)6
Experimental: as §1

[16] = tested on: Staphylococcus aureus ATCC 25923; assay: Biofilm inhibition assay (crystal violet); type: cell-based
Experimental: as §2
as §3, with “Plates” for “Aliquots (50 µL) of the standardized bacterial suspension were inoculated into 96-well microtiter plates containing the test compounds at final concentrations of 100, 50, 25, and 12.5 µg/mL. Plates”

| SMILES | MIC [1] | MIC [2] | MIC [4] | MIC [6] | MIC [7] | IC50 [8] | IC50 [9] | MIC [10] | MIC [11] | MIC [12] | MIC [13] | other results |
| --- | --- | --- | --- | --- | --- | --- | --- | --- | --- | --- | --- | --- |
| CCCCCCCCCCCCCCCCNC1C[N+]2(CCCC[N+]34CCC(CC3)C(NCCCCCCCCCCCCCCCC)C4)CCC1CC2 (racemic) [2(QC16)4, (±)-1,1′-(Butane-1,4-diyl) bis(3-(hexadecylamino)quinuclidinium) dibromide] | 9 µM | > 75 µM | 19 µM | 9 µM | 75 µM | 25 µM | 34 µM | 75 µM | > 75 µM | 75 µM | 38 µM | effect on bacterial growth [3]: pronounced inhibitory effect; inhibition at 6.25 µg/mL [5]: > 50%; inhibition at 12.5 µg/mL [5]: > 70%; inhibition at 25 µg/mL [5]: > 90%; inhibition at 50 µg/mL [5]: > 90%; inhibition at 100 µg/mL [5]: 92% |
| CCCCCCCCCCCCCCNC1C[N+]2(CCCCCC[N+]34CCC(CC3)C(NCCCCCCCCCCCCCC)C4)CCC1CC2 (racemic) [2(QC14)6, (±)-1,1′-(Hexane-1,6-diyl) bis(3-(tetradecylamino)quinuclidinium) dibromide] | 19 µM | > 75 µM | 19 µM | 19 µM | 38 µM | 42 µM | 61 µM | 75 µM | 75 µM | 75 µM | 38 µM | time to rapid bactericidal activity ([14]; S. aureus ATCC 25923): ≤ 3 h; time to complete killing ([14]; S. aureus ATCC 25923, 2 × MIC): 2 h; growth curve slope in exponential phase [15]: shallower growth curve slope; biofilm inhibition ([16]; S. aureus ATCC 25923, 6.25 µg/mL): 13%; biofilm inhibition ([16]; S. aureus ATCC 25923, 12.5 µg/mL): 15%; biofilm inhibition ([16]; S. aureus ATCC 25923, 25 µg/mL): 34%; biofilm inhibition ([16]; S. aureus ATCC 25923, 50 µg/mL): remained effective; biofilm inhibition ([16]; S. aureus ATCC 25923, 100 µg/mL): > 90% |

From paper PMC12473123, “Structure–Function Insights into Quinuclidine-3-One BisQACs: Synthesis, Modulation of Bacterial Resistance, Structure–Activity Relationship, and Biological Profiling” (Pharmaceuticals, 2025)
